Results on one molecule are retold here after US7981899B2, “Use of compatible solutes for inhibiting the release of ceramides” (Merck Patent GmbH, priority 2002, dated 2011).

One experiment deals with ICAM-1. The experiment in a line: Inhibition of UV-A-induced ICAM-1 expression, differential RT-PCR (Example B3). Type of experiment: cell-based, human. Particulars: keratinocytes, 1 mM pre-incubation for 24 hours, UVA 30 J/cm^2, relative to β-actin, all points in time, FIG. 3. On the procedure: The expression of ICAM-1 is measured using differential reverse transcriptase PCR (RT -PCR) and the kit from Applied Biosystem. In order to take into account the normal variations in gene expression of skin cells, the ICAM-1 expression is compared with the housekeeping gene β-actin formed constitutively. Semiquantitative analysis of the RT-PCR is carried out by ion exchange chromatography using a UV spectrophotometer (A260). (A) Un-pretreated, irradiated control, (B) pre-incubated with 1 mM RONACARE™ ectoin for 24 hours and irradiated with a single dose of 30 J/cm^2, or (C) pre-incubated with 1 mM ectoin for 24 hours, unirradiated. The UVA radiation induces an increase in ICAM-1 expression.

In experiment [1] the test system is transcription factor AP-2. The experiment in a line: Inhibition of UV-A-induced AP-2 activation, gel electrophoresis mobility shift assay (Example B2). Format: cell-based. Particulars: human keratinocytes, 1 mM pre-incubation for 24 hours, UV-A 30 J/cm^2, FIG. 2. How it is done:
The determination of the activation of transcription factor AP-2 is carried out with the aid of gel electrophoresis mobility shift assays (GEMSA). To this end, a nucleus extract (according to J.D. Dignam, P.L.Martin, B.S. Skastry, R.G.G. Roeder, Methods Enzymol 101 (1983) 582-598) of human keratinocytes which had previously been irradiated for 1 hour with 30 J/cm^2 of UV-A light is incubated in comparison with an unirradiated control with the consensus oligonucleotide sequence of ICAM-1 promoter (in accordance with G.G. Stade, G. Messer, G. Riethmüller, J.P. Johannson; Immunobiology 182 (1990) 79-87). The amount of bound AP-2 is subsequently determined by means of GEMSA. (A) Un-pretreated, unirradiated control, (B) pre-incubated with 1 mM RONACARE™ ectoin for 24 hours and irradiated with a single dose of 30 J/cm^2, or (C) pre-incubated only with the cell medium for 24 hours and irradiated with 30 J/cm^2. The UVA irradiation results in activation of transcription factor AP-2 after UVA exposure.

Experiment [2] relates to normal human keratinocytes. The experiment is described as follows: Release of second messenger in UV-A-irradiated keratinocytes (Example A). Format: cell-based. The note with it: 2 mM for 24 hours. How it is done: Normal human keratinocytes which are left untreated or have been treated with a 2 mM solution of RONACARE™ ectoin for 24 hours are subjected to a UV-A radiation dose of 30 J/cm^2 (wavelength of the UV-A radiation: 340-400 nm). […] The cells are harvested 1 hour after irradiation (=maximum UV-A-induced second messenger formation). The release of the second messenger was determined.

The subject of another experiment is dermal human fibroblasts. The experiment is described as follows: UVA radiation-induced formation of mitochondrial DNA mutations (common deletion), PCR (Example B4). Format: cell-based. The note with it: 1 mM pretreatment, 8 J/cm^2 UVA three times daily, four successive days, three weeks, FIG. 4. From the text:
Dermal human fibroblasts are cultivated in Eagle minimal medium. The cells are irradiated three times daily with 8 J/cm^2 of UVA on four successive days over a total of three weeks. The mt-DNA is then extracted and amplified using PCR. Further details on the method are described in detail in M. Berneburg, S. Grether-Beck, V. Kürten, Th. Ruzicka, K. Briviba, H. Sies, J. Krutmann, J Biol Chem 274 (1999) 15345-15349 and M. Berneburg, N. Gattermann, H. Stege, M. Grewe, K. Vogelsang, Th. Ruzicka, J. Krutmann, Photobiol. 66 (1997) 271-275.

The subject of experiment [3] is normal human keratinocytes. The experiment in a line: Inhibition of UV-A-induced ceramide formation, quantitative HPTLC (Example B1). Format: cell-based. Particulars: 1 mM pre-incubation for 24 hours, UVA 30 J/cm^2, 1 hour after irradiation, FIG. 1. How it is done:
The concentration of a second messenger (ceramide) in UVA-irradiated normal human keratinocytes which have either been pretreated with 1 mM RONACARE™ ectoin or are untreated compared with unirradiated keratinocytes is measured using a quantitative HPTLC method. (A) Un-pretreated control, (B) pre-incubated only with the cell medium for 24 hours, (C) pre-incubated with 1 mM RONACARE™ ectoin for 24 hours. The cells pre-treated in this way are irradiated with a single dose of UVA of 30 J/cm^2 (radiation source: Sellamed 24000). The cells are “harvested” 1 hour after irradiation, a lipid extraction is carried out, and the concentration of the second messenger is determined by quantitative HPTLC. Methodological details are given in Grether-Beck Set al., EMBO J 19: 5793-5800, 2000. […] The data are shown as histograms of ectoin (mM) against ceramide (ng).

In the case of `CC1=N[C@H](C(=O)O)CCN1` [RONACARE™ ectoin, (S)-1,4,5,6-tetrahydro-2-methyl-4-pyrimidinecarboxylic acid], in the experiment on ICAM-1, the “ICAM-1 induction induced by UVA radiation” value was “virtually completely eliminate ICAM-1 induction”. Besides, in experiment [1], the “activation of transcription factor AP-2 after UVA exposure” value was “suppressed virtually completely”. Further, the “UV-A-induced release of the second messenger” value in experiment [2] (UV-A 30 J/cm^2) is reported as “inhibits the UV-A-induced release of the second messenger”. Besides, in experiment [2] (UV-A 30 J/cm^2 (340-400 nm), harvested 1 hour after irradiation), the “Increase in second messenger” value worked out at 5.65 ng. Moreover, in the experiment with dermal human fibroblasts, the “formation of mt-DNA mutations” value is “prevented the formation of mt-DNA mutations”. Further, the “ceramide formation induced by UVA radiation” value in experiment [3] is “completely suppresses ceramide formation”.
